“And” between values parts separate entries of the source, which are not always exact repeats. Equal values may be shown once. “Also recorded” adds a separate entry of the source.
How the values were obtained:
[1] = tested on: female Aedes aegypti adults; assay: High-throughput in vitro screening assay, spatial repellency; assay type: in vivo; conditions: for 30-minute RD50 compared with that of DEET: 30 minutes, α = 0.05; for RD50 (30 min), half-repellent dose / RD50 (60 min), half-repellent dose: dose per filter paper surface area, 95% CI; for spatial repellency (in words): highest-tested dose of 100 μg/cm^2
Source text: A high-throughput screening method for evaluating spatial repellency and vapor toxicity, described by Jiang S., et al. (2019, “High-Throughput Screening Method for Evaluating Spatial Repellency and Vapour Toxicity to Mosquitoes,” Med. Vet. Entomol. 33: 388-396), was used for this study. As shown in FIG. 2 of Jiang S., et al., assay tubes were constructed by covering 12.5 cm glass tubes on one side with netting secured by a rubber band. The tubes were used in horizontal orientation. Adult mosquitos 2-7 days old were anesthetized on ice for approximately 5 minutes and 16 females were transferred to each tube. The other end of the tube was then closed with netting and a rubber band.
The conical ends of 50 mL centrifuge tubes (Eppendorf, Enfield, Connecticut, USA) were cut at approximately the 10 mL mark to create the end caps for the assay tubes. […] For repellency tests, filter papers for the “untreated” side of the assay tube received pure acetone, whereas filter papers for the “treated” side received acetone solution containing a dissolved compound of interest. For knockdown tests, both filter papers were treated with acetone solution containing one or more compounds of interest. Acetone on both filter papers served as negative controls.
For repellency assays, filter papers were given 10 minutes of evaporation time before being placed into the end caps with forceps (Jiang S., et al. 2019, Supra). For knockdown assays, filter papers were given 5 minutes of evaporation time before being placed into the end caps. […] Assay tubes were capped such that the cap securely overlapped the glass but approximately 5 mm of space was left between the netting and the filter paper so that the mosquitos could not contact the filter paper.
Assay tubes were placed on a white polystyrene platform with wooden sticks glued flatly across it to prevent the tubes from rolling. A straight black line was drawn down the center of the platform and assay tubes were centered on the line at the beginning of the tests. In repellency assays, data were collected at 15, 30, and 60 minutes after the end caps were placed on the assay tubes. Assay tubes were not disturbed for the entire 60 minutes. At each time point, the number of mosquitos that remained on the treated side was visually assessed and recorded. The treated side was alternated with each set of tests. For repellency tests, DEET at a dose of 100 μg/cm^2 served as the positive control.
For the high-throughput in vitro screening assays, analyses were conducted with R version 4.2.2 statistical software (R Core Team, 2022, “R: a language and environment for statistical computing. R foundation for statistical computing,” Vienna, Austria). Concentrations were calculated in terms of filter paper surface area (μg/cm^2) for repellency assays and in terms of assay tube volume (μg/cm^3) for knockdown assays.
Half-repellent (RD50), half-knockdown (KD50), and half-lethal (LD50) doses were calculated from dose-response curves (DRCs) obtained by four-parameter log-logistic equation models generated using the drc package (Dose Response Curve Analyses Software; Ritz C. et al., 2015, “Dose-response analysis using R,” PLOS ONE 10: e0146021). For repellency test analysis, the upper and lower asymptotes for the proportion of mosquitos remaining on the treated side were fixed at 0.5 and 0, respectively. For KD and mortality test analysis, the upper and lower asymptotes for the proportion of mosquitos knocked down or killed were fixed at 1.0 and 0, respectively. To determine whether RD50, KD50, or LD50 values differed across compounds at each timepoint, a joint model assuming different values for each compound and a null model that assumed a single value for all compounds were compared with a likelihood ratio test.

[2] = tested on: female Aedes aegypti adults; assay: Arm-in-cage cloth-patch in vivo assay (topical repellency); conditions: for Minimum Effective Dose (MED): Mean ± SEM, lowest dosage with five or fewer bites through repellent-treated cloth in 1-minute exposure, at least three volunteers; for topical repellency (in words): initial screening dose of 0.187 mg/cm^2
Source text: Arm-in-Cage Test Cloth-Patch in vivo Assay Pyrethroid-susceptible yellow fever mosquitoes Ae. aegypti (Orlando strain) were reared in the United States Department of Agriculture Mosquito and Fly Research Unit in Gainesville, FL under standard protocols. Three to seven-day-old, starved female mosquitoes were collected using a “draw box” (Posey, K. and Schreck, C. E, 1981, “An airflow apparatus for selecting female mosquitoes for use in repellent and attraction studies” Mosquito News 41: 566-568; US. Department of Agriculture, 1977, Repellent activity of compounds submitted by Walter Reed Army Institute of Research. Part 1. Protection time and minimum effective dosage against Aedes aegypti mosquitoes. Tech. Bull. No. 1549) and were placed in cages at an approximate density 200 mosquitoes/cage. Repellency was determined according to a standard protocol (Bernier, U. R., et al, 2022. “Evaluation and application of repellent-treated uniform/clothing and textiles against vector mosquitoes,” In Advances in Arthropod Repellents (pp. 69-94). Academic Press) and reported as the minimum effective dosage (MED). […] A nylon leg stocking was placed over the arm to prevent direct contact of the repellent-treated cloth patch with the skin. […]. Cloth was treated by placing a rolled bandage (50 cm^2) into each vial containing 1 mL of solution and allowing the patch to absorb the solution completely. The cloth was taped over a 4 by 9-cm opening cut into a vinyl plastic sheet that was draped around the volunteers' arms and taped in place. The cloth was air-dried approximately 15 min before conducting each test. The work reported here is an average of the MED for at least three volunteers. Each volunteer covered his or her arm with a nylon stocking to avoid contact between the skin and the treated cloth and wore a rubber glove to prevent mosquito bites on the hand.
. The minimum effective dose (MED) was determined for each repellent and subject, defined as the lowest concentration that prevents biting). MEDs from each subject were pooled and reported as the average among all replicates/subjects with SEM. A minimum of 3 replicates were performed on at least three human subjects. Written informed consent was obtained for all human subjects used in this study in accordance with IRB protocol #20193320, as approved by the WCG™ IRB.
Statistical Analyses: Student's T-test was used to compare the means between tested compound and DEET and Icaridin in the arm-in-cage in vivo assay and neurophysiological study.

SMILES | 30-minute RD50 compared with that of DEET [1] | Minimum Effective Dose (MED) [2] | RD50 (30 min), half-repellent dose [1] [μg/cm^2] | RD50 (60 min), half-repellent dose [1] [μg/cm^2] | spatial repellency (in words) [1] | topical repellency (in words) [2] | MED, times lower than the initial screening dose ([2]; relative to initial screening dose of 0.187 mg/cm^2) [times]
C=CCOC(=O)c1ccccc1N [AA, allyl anthranilate] | significantly lower than that of DEET | 0.039 mg/cm^2 | – | – | – | – | –
O=C(OCc1ccccc1)c1ccccc1 [BB, benzyl benzoate] | – | >0.187 mg/cm^2 | >100 | >100 | did not show spatial repellencies | did not show any topical repellencies | –
CCOC(=O)c1ccccc1OC [E2MOB, ethyl 2-methoxybenzoate] | significantly lower than that of DEET | – | 8.83 | – | – | did not exhibit topical repellency | –
CCOC(=O)c1cccc(N)c1 [E3AB, ethyl 3-aminobenzoate] | – | 0.039 mg/cm^2 | >100 | >100 | did not show any spatial repellencies | – | –
CCOC(=O)c1ccc(OC)cc1 [E4MOB, ethyl 4-methoxybenzoate] | significantly lower than that of DEET | >0.187 mg/cm^2 | – | – | – | did not show any topical repellencies; also recorded: did not exhibit topical repellency | –
CCOC(=O)c1ccccc1N [EA, ethyl anthranilate] | significantly lower than that of DEET | 0.037 mg/cm^2 | – | – | – | – | –
CCOC(=O)c1ccccc1 [EB, ethyl benzoate] | – | >0.187 mg/cm^2 | >100 | >100 | did not show spatial repellencies | did not show any topical repellencies | –
CCOC(=O)c1ccccc1NC=O [EFA, ethyl N-formylanthranilate] | – | 0.0062 mg/cm^2 | >100 | >100 | did not show spatial repellencies | – | 30
CCC(C)OC(=O)N1CCCCC1CCO (centres unmarked) [Icaridin, 1-(1-Methylpropoxycarbonyl)-2-(2-hydroxyethyl)piperidine, reference compound] | – | 0.0150±0.004 mg/cm^2 and 0.0150 mg/cm^2 | – | – | – | – | –
COC(=O)c1ccccc1S(N)(=O)=O [M2ASB, methyl 2-(aminosulfonyl)benzoate] | – | >0.187 mg/cm^2 | >100 | >100 | did not show spatial repellencies | did not show any topical repellencies | –
COC(=O)c1ccccc1Cl [M2CB, methyl 2-chlorobenzoate] | not significantly different from that of DEET | 0.164 mg/cm^2 | – | – | – | demonstrated repellency at doses lower than 0.187 mg/cm^2 on at least one test subject | –
COC(=O)c1ccccc1C [M2MB, methyl 2-methylbenzoate] | – | 0.250 mg/cm^2 | >100 | >100 | did not show spatial repellencies | demonstrated repellency at doses lower than 0.187 mg/cm^2 on at least one test subject | –
CNc1ccccc1C(=O)OC [MMA, methyl N-methylanthranilate] | significantly lower than that of DEET | – | – | – | – | – | –
CC(C)COC(=O)c1ccccc1N [iBA, iso-butyl anthranilate] | not significantly different from that of DEET | – | – | – | – | – | –
CCCCOC(=O)c1ccccc1N [nBA, n-butyl anthranilate] | – | – | >100 | – | did not show any spatial repellencies | – | –

— patent US20240292836A1, “AGENTS FOR REPELLING, KNOCKING DOWN, AND/OR KILLING BLOOD-SUCKING ARTHROPODS AND USES THEREOF” (The United States of America, as represented by the …, priority 2023, published 2024)
